Where two headings read alike, the source gives them in different places.
Legend:
[1] = LC-MS/MS of 5-MeO-DMT, bufotenine and 5-MIAA in urine, serum and breastmilk of lactating PPD patient; infant exposure estimates; conditions: for Breastmilk concentration / Serum concentration / Urine concentration: second patient
Description: When determining the potential impact of maternal drug administration on a breastfed infant, it is standard practice to calculate the Relative Infant Dose (RID) (Bennett, P. N., and L. J. Notarianni. “Risk from drugs in breast milk: an analysis by relative dose.” Br J Clin Pharmacol 42.5 (1996): P673-4). The RID is the dosage (in μg/kg/day) the infant is exposed to by the intake of breast milk, divided by the dosage (in μg/kg/day) the mother receives.
Using estimates for daily intake of breast milk and the number of feeds as well as the measured breast milk concentrations the exposure of the infant can be determined.
For example, a published estimate for daily intake of breast milk as a function of infant weight is 150 ml/kg/day. To model the exposure, it is assumed that an infant of 5 kg is fed three times over 24 hours, receiving 250 ml breast milk each time.
The second patient was lactating, and, per the clinical trial protocol, breastmilk samples were collected pre-dosing and at multiple timepoints after administration of the last dose. […] Similar analyses were carried out on patient serum and urine samples.

[2] = system: human hepatocytes (Hμrel HumanPool co-culture); assay: Metabolic stability in Hμrel human hepatocyte co-culture
human plasma protein = assay: Plasma binding of 5-MIAA; assay type: in vitro ADME
Description: (§1) Binding to human plasma protein was determined. Reported are the unbound fraction (fu) for three replicates as well as the mean unbound fraction, the standard deviation and the mean % recovery (Table 8).

human hepatocytes = assay: Metabolite identification in human hepatocyte suspension; conditions: 5-MeO-DMT free base 10 μM, incubated up to 120 minutes
Description: For incubations with cryopreserved hepatocytes, the 2 mM stock solution was diluted with Leibovitz L-15 medium to a concentration of 20 μM or 2 μM. An aliquot (250 μL) of the 20 μM and 2 μM test substance formulations was added to each hepatocyte incubation sample (250 μL), as appropriate, so that the final test substance concentration in the incubations was 10 μM or 1 μM, respectively, and incubations contained less than 1% (v/v) solvent.
Incubations were performed at ca. 37° C. in a shaking water bath (total incubation volume 0.5 mL). For 1 μM, incubations were terminated after 0, 5, 10, 20, 30, 60 and 120 minutes, by the addition of ice-cold acetonitrile (0.5 mL).
The samples were vortex mixed and centrifuged at ca 13,000 rpm for 10 minutes at room temperature. Following centrifugation, the protein-free supernatants were removed for analysis.
Blank control incubations were carried out with Leibovitz L-15 medium in place of the test substance. No cells control samples were performed with Leibovitz L-15 medium in place of hepatocytes. Aliquots of the blank control samples were taken at 120 minutes, while no cells control samples were taken at 0, 30 and 120 for 1 μM incubations and at 0 and 120 minutes for 10 μM incubations.
All 1 μM incubations were performed in duplicate, while all 10 μM incubations were performed in singlet. All samples were stored at −80° C. (nominal) prior to analysis.
Prior to sample analysis a 100 μL aliquot of each sample was evaporated to near dryness under a steady stream of nitrogen at room temperature, and subsequently reconstituted in 50 μL of mobile phase A (0.1% formic acid in water). Each sample (0, 30 and 120-minute, 10 μM) was analysed using accurate mass LC-MS to determine relative levels of parent compound at each time-point, and determine the profile of metabolites formed. Appropriate blank and control samples were also analysed. The 10 and 60-minute, 10 μM incubation samples were not analysed and were stored at −80° C. (nominal). […]

[3] = Pharmacokinetics of 5-MeO-DMT and bufotenine after single inhaled dose; assay type: in vivo, human; conditions: from 15 min onwards after 5-MeO-DMT inhalation; LLOQ
Description: Blood samples were obtained at 1; 2; 4; 7; 10; 15; 20; 30; 45 min and 1; 1.5; 2; 3; 4 hours after administration.
PK parameters were generated by algebraic analysis of the concentration versus time plots for each individual. The analysis was carried out using the software Phoenix WinNonlin 6.3.

Plasma binding of 5-MIAA = assay type: in vitro ADME; conditions: for fraction unbound: human, plasma
Description: as §1

[4] = 5 kg infant, three feeds of 250 ml

| Molecule | Breastmilk concentration ([1]; 1.0 hrs after last dose) | Serum concentration ([1]; 1.0 hrs after last dose) | Breastmilk concentration ([1]; 2.5 hrs after last dose) | Serum concentration ([1]; 2.5 hrs after last dose) | Breastmilk concentration ([1]; 8.5 hrs after last dose) | Urine concentration ([1]; 8.5 hrs after last dose) | Breastmilk concentration ([1]; 24.0 hrs after last dose) | Serum concentration ([1]; 24.0 hrs after last dose) | Urine concentration ([1]; 24.0 hrs after last dose) | Breastmilk concentration ([1]; 120.0 hrs after last dose) | Serum concentration ([1]; 120.0 hrs after last dose) | Urine concentration ([1]; 120.0 hrs after last dose) | Breastmilk concentration ([1]; −24.0 hrs (pre-dosing)) | Serum concentration ([1]; −24.0 hrs (pre-dosing)) | Urine concentration ([1]; −24.0 hrs (pre-dosing)) | Relative Proportion of compounds identified (human hepatocytes) [%] | further results |
| --- | --- | --- | --- | --- | --- | --- | --- | --- | --- | --- | --- | --- | --- | --- | --- | --- | --- |
| 5-Methoxyindole acetic acid [5-MIAA] | 13945.2 pg/mL | 263.092 ng/mL | 13240.9 pg/mL | 101.9947 ng/mL | 359.4 pg/mL | 291651 pg/mL | 35.5 pg/mL | 0.2706 ng/mL | 18649 pg/mL | BLQ (Below limit of quantification. The lower limit of quantification is 25 pg/ml for both 5-MeO-DMT and 5-MIAA in both serum and breastmilk; it is 25 pg/ml in urine for 5-MeO-DMT and 250 pg/ml for 5-MIAA in urine.) | 0.0671 ng/mL | 9444 pg/mL | BLQ (Below limit of quantification. The lower limit of quantification is 25 pg/ml for both 5-MeO-DMT and 5-MIAA in both serum and breastmilk; it is 25 pg/ml in urine for 5-MeO-DMT and 250 pg/ml for 5-MIAA in urine.) | 0.051 ng/mL | 8113 pg/mL |  | DID of 5-MIAA per kg [1, 4]: 0.001377 mg/kg/day; DID, total exposure of the infant to 5-MIAA [1, 4]: 0.006886 mg/day; Disappearance with stromal cell controls ([2]; 0-72 h): no disappearance; Remaining abundance after 72h ([2]; hepatocytes, 1 and 10 μM): 75-82%; In vitro intrinsic clearance ([2]; human hepatocytes, 1 μM): 0.15 μl/min/million cells; Mean % Recovery (human plasma protein): 81.4%; Plasma binding (mean fraction unbound) (human plasma protein): ~50%; Unbound fraction (fu), Replicate 1 (human plasma protein): 0.499; Unbound fraction (fu), Replicate 2 (human plasma protein): 0.462; Unbound fraction (fu), Replicate 3 (human plasma protein): 0.544; Mean fu (human plasma protein; three replicates): 0.502 |
| CN(C)CCc1c[nH]c2ccc(O)cc12 [Bufotenine] | BLQ (Below limit of quantification. The lower limit of quantification is 25 pg/ml for both 5-MeO-DMT and 5-MIAA in both serum and breastmilk; it is 25 pg/ml in urine for 5-MeO-DMT and 250 pg/ml for 5-MIAA in urine.) | BLQ (Below limit of quantification. The lower limit of quantification is 25 pg/ml for both 5-MeO-DMT and 5-MIAA in both serum and breastmilk; it is 25 pg/ml in urine for 5-MeO-DMT and 250 pg/ml for 5-MIAA in urine.) | BLQ (Below limit of quantification. The lower limit of quantification is 25 pg/ml for both 5-MeO-DMT and 5-MIAA in both serum and breastmilk; it is 25 pg/ml in urine for 5-MeO-DMT and 250 pg/ml for 5-MIAA in urine.) | BLQ (Below limit of quantification. The lower limit of quantification is 25 pg/ml for both 5-MeO-DMT and 5-MIAA in both serum and breastmilk; it is 25 pg/ml in urine for 5-MeO-DMT and 250 pg/ml for 5-MIAA in urine.) | BLQ (Below limit of quantification. The lower limit of quantification is 25 pg/ml for both 5-MeO-DMT and 5-MIAA in both serum and breastmilk; it is 25 pg/ml in urine for 5-MeO-DMT and 250 pg/ml for 5-MIAA in urine.) | BLQ (Below limit of quantification. The lower limit of quantification is 25 pg/ml for both 5-MeO-DMT and 5-MIAA in both serum and breastmilk; it is 25 pg/ml in urine for 5-MeO-DMT and 250 pg/ml for 5-MIAA in urine.) | BLQ (Below limit of quantification. The lower limit of quantification is 25 pg/ml for both 5-MeO-DMT and 5-MIAA in both serum and breastmilk; it is 25 pg/ml in urine for 5-MeO-DMT and 250 pg/ml for 5-MIAA in urine.) | BLQ (Below limit of quantification. The lower limit of quantification is 25 pg/ml for both 5-MeO-DMT and 5-MIAA in both serum and breastmilk; it is 25 pg/ml in urine for 5-MeO-DMT and 250 pg/ml for 5-MIAA in urine.) | BLQ (Below limit of quantification. The lower limit of quantification is 25 pg/ml for both 5-MeO-DMT and 5-MIAA in both serum and breastmilk; it is 25 pg/ml in urine for 5-MeO-DMT and 250 pg/ml for 5-MIAA in urine.) | BLQ (Below limit of quantification. The lower limit of quantification is 25 pg/ml for both 5-MeO-DMT and 5-MIAA in both serum and breastmilk; it is 25 pg/ml in urine for 5-MeO-DMT and 250 pg/ml for 5-MIAA in urine.) | BLQ (Below limit of quantification. The lower limit of quantification is 25 pg/ml for both 5-MeO-DMT and 5-MIAA in both serum and breastmilk; it is 25 pg/ml in urine for 5-MeO-DMT and 250 pg/ml for 5-MIAA in urine.) | BLQ (Below limit of quantification. The lower limit of quantification is 25 pg/ml for both 5-MeO-DMT and 5-MIAA in both serum and breastmilk; it is 25 pg/ml in urine for 5-MeO-DMT and 250 pg/ml for 5-MIAA in urine.) | BLQ (Below limit of quantification. The lower limit of quantification is 25 pg/ml for both 5-MeO-DMT and 5-MIAA in both serum and breastmilk; it is 25 pg/ml in urine for 5-MeO-DMT and 250 pg/ml for 5-MIAA in urine.) | BLQ (Below limit of quantification. The lower limit of quantification is 25 pg/ml for both 5-MeO-DMT and 5-MIAA in both serum and breastmilk; it is 25 pg/ml in urine for 5-MeO-DMT and 250 pg/ml for 5-MIAA in urine.) | BLQ (Below limit of quantification. The lower limit of quantification is 25 pg/ml for both 5-MeO-DMT and 5-MIAA in both serum and breastmilk; it is 25 pg/ml in urine for 5-MeO-DMT and 250 pg/ml for 5-MIAA in urine.) | 5 | Blood concentration of metabolite bufotenine [3]: < 0.025 ng/mL |
| COc1ccc2[nH]cc(CC[N+](C)(C)[O-])c2c1 [5-MeO-DMT-N-oxide] |  |  |  |  |  |  |  |  |  |  |  |  |  |  |  | 1 |  |
| CC(=O)CC(c1ccccc1)c1c(O)c2ccccc2oc1=O (stereo not shown) [Warfarin, reference compound] |  |  |  |  |  |  |  |  |  |  |  |  |  |  |  |  | recovery (Plasma binding of 5-MIAA; human plasma): 78.1%; fraction unbound (Plasma binding of 5-MIAA; read-out: Unbound fraction (fu), Replicate 1): 0.0418; fraction unbound (Plasma binding of 5-MIAA; read-out: Unbound fraction (fu), Replicate 2): 0.0356; fraction unbound (Plasma binding of 5-MIAA; read-out: Unbound fraction (fu), Replicate 3): 0.0358; fraction unbound (Plasma binding of 5-MIAA; three replicates, read-out: Mean fu): 0.0377 |

— patent US20240108601A1, “TREATMENT OF MENTAL DISORDERS” (GH Research Ireland Limited, priority 2022, published 2024)
